Experiments:
Type in all cases: cell-based
[1] = molecular target: GluN2C-containing NMDA receptors (Homo sapiens, UniProt Q14957); assay: Two-electrode voltage-clamp recordings from Xenopus laevis oocytes, GluN2C; details: for I10 μM/ICONTROL (mean ± SEM, %) Glu N2C: 10 μM test compound with glutamate 100 μM and glycine 30 μM, Tables 1-5; for I10 μM/ICONTROL (mean ± SEM, %) Glu N2C / maximal potentiation Glu N2C: percent of response without compound; for EC50 / maximal potentiation Glu N2C: Table 1; for EC50: glutamate 100 μM, glycine 30 μM, Hill fit, read-out: EC50 Glu N2C; for maximal potentiation Glu N2C: in brackets after EC50
Chain of GluN2C-containing NMDA receptors (Q14957 20-1233, other chains not shown): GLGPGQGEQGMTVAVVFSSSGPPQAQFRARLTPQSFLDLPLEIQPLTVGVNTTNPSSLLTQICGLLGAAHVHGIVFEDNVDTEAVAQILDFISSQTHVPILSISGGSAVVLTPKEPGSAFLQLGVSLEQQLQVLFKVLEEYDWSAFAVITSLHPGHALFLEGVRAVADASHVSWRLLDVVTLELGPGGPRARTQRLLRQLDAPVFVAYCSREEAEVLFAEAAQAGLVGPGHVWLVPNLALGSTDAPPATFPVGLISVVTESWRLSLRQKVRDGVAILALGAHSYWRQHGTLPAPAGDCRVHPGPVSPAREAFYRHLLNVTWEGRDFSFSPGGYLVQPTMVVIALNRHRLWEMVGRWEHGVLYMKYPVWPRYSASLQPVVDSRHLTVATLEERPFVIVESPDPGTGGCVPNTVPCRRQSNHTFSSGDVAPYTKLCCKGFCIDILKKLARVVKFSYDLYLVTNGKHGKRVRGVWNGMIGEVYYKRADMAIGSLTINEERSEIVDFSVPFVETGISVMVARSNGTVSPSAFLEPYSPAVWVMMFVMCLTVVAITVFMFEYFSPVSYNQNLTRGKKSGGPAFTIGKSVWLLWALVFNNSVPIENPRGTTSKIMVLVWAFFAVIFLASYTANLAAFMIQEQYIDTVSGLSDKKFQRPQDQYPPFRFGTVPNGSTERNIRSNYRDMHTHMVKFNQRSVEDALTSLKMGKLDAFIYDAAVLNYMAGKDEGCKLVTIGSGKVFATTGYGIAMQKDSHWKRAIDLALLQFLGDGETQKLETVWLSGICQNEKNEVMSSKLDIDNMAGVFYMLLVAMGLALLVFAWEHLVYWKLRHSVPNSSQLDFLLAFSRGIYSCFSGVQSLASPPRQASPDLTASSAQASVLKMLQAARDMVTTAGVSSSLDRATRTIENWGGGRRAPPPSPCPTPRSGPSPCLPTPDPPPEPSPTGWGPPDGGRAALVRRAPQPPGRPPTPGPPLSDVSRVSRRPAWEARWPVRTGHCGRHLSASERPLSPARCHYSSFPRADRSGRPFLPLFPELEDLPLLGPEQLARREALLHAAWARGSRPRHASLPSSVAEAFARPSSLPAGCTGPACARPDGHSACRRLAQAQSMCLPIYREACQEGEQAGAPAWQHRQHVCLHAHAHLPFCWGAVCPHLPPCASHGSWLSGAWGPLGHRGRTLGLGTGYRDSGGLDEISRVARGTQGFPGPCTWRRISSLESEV
Description: (§1) Xenopus laevis oocytes were injected with cRNA encoding the NMDA receptor subunits. Two to seven days after injection, two-electrode voltage-clamp recordings were performed. Extracellular solutions were made from a solutions containing (in mM) 90 NaCl, 3 KCl, 10 HEPES, 0.5 BaCl2, 0.01 EDTA (pH 7.4 with NaOH). Voltage and current electrodes were filled with 0.3 M and 3.0 M KCl, respectively.
(§2) Potency was determined by adding increasing concentrations of test compound to saturating concentrations of glutamate (100 μM) and glycine (30 μM), and the response amplitude measured. The response in the presence of each concentration of test compound plus agonists was expressed as a percent of the response in the absence of test compound.

[2] = molecular target: GluN2D-containing NMDA receptors (Homo sapiens, UniProt O15399); assay: Two-electrode voltage-clamp recordings from Xenopus laevis oocytes, GluN2D; details: for I10 μM/ICONTROL (mean ± SEM, %) Glu N2D: 10 μM test compound with glutamate 100 μM and glycine 30 μM, Tables 1-5; for I10 μM/ICONTROL (mean ± SEM, %) Glu N2D / maximal potentiation Glu N2D: percent of response without compound; for EC50 / maximal potentiation Glu N2D: Table 1; for EC50: glutamate 100 μM, glycine 30 μM, Hill fit, read-out: EC50 Glu N2D; for maximal potentiation Glu N2D: in brackets after EC50
Chain of GluN2D-containing NMDA receptors (O15399 28-1336, other chains not shown): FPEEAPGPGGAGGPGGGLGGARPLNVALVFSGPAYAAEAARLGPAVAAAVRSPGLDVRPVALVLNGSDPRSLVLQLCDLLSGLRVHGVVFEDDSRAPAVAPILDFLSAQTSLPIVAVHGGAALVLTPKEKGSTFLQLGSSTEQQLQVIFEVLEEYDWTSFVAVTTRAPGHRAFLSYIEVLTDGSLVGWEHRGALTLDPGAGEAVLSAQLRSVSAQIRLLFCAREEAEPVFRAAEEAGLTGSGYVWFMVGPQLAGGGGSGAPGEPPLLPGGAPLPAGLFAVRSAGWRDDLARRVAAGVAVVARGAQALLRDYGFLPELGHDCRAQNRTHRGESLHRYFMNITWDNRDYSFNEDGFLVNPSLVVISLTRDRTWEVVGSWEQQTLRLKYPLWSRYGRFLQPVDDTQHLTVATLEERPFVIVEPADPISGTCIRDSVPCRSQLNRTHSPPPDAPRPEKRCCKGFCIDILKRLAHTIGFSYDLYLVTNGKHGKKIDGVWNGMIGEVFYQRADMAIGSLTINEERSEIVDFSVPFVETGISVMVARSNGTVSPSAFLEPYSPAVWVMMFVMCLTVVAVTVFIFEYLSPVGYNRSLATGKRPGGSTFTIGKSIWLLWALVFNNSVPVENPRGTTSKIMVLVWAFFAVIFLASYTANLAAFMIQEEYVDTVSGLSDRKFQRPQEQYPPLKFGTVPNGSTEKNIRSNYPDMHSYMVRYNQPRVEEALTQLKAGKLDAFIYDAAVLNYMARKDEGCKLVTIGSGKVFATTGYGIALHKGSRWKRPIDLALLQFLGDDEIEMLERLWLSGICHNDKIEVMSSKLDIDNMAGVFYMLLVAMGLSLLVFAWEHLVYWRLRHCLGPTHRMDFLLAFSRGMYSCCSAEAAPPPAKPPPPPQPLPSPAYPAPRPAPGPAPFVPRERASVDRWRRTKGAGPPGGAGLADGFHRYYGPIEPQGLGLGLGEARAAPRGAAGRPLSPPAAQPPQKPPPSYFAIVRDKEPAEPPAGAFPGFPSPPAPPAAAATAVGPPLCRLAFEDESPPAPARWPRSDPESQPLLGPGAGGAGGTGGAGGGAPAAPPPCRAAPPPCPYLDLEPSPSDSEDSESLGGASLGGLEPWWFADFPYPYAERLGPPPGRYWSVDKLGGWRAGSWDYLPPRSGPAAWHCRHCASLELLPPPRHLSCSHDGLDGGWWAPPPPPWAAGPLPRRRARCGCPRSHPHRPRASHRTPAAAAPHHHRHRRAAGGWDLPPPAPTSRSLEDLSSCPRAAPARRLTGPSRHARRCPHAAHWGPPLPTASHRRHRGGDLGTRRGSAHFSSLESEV
Description: as §1, §2

[3] = molecular target: GluN2B-containing NMDA receptors (Homo sapiens, UniProt Q13224); assay: Two-electrode voltage-clamp recordings from Xenopus laevis oocytes, GluN2B; details: for I10 μM/ICONTROL (mean ± SEM, %) Glu N2B: 10 μM test compound with glutamate 100 μM and glycine 30 μM, Tables 1-5; for I10 μM/ICONTROL (mean ± SEM, %) Glu N2B / maximal potentiation Glu N2B: percent of response without compound; for EC50 / maximal potentiation Glu N2B: Table 1; for EC50: glutamate 100 μM, glycine 30 μM, Hill fit, read-out: EC50 Glu N2B; for maximal potentiation Glu N2B: in brackets after EC50
Chain of GluN2B-containing NMDA receptors (Q13224 27-1484, other chains not shown): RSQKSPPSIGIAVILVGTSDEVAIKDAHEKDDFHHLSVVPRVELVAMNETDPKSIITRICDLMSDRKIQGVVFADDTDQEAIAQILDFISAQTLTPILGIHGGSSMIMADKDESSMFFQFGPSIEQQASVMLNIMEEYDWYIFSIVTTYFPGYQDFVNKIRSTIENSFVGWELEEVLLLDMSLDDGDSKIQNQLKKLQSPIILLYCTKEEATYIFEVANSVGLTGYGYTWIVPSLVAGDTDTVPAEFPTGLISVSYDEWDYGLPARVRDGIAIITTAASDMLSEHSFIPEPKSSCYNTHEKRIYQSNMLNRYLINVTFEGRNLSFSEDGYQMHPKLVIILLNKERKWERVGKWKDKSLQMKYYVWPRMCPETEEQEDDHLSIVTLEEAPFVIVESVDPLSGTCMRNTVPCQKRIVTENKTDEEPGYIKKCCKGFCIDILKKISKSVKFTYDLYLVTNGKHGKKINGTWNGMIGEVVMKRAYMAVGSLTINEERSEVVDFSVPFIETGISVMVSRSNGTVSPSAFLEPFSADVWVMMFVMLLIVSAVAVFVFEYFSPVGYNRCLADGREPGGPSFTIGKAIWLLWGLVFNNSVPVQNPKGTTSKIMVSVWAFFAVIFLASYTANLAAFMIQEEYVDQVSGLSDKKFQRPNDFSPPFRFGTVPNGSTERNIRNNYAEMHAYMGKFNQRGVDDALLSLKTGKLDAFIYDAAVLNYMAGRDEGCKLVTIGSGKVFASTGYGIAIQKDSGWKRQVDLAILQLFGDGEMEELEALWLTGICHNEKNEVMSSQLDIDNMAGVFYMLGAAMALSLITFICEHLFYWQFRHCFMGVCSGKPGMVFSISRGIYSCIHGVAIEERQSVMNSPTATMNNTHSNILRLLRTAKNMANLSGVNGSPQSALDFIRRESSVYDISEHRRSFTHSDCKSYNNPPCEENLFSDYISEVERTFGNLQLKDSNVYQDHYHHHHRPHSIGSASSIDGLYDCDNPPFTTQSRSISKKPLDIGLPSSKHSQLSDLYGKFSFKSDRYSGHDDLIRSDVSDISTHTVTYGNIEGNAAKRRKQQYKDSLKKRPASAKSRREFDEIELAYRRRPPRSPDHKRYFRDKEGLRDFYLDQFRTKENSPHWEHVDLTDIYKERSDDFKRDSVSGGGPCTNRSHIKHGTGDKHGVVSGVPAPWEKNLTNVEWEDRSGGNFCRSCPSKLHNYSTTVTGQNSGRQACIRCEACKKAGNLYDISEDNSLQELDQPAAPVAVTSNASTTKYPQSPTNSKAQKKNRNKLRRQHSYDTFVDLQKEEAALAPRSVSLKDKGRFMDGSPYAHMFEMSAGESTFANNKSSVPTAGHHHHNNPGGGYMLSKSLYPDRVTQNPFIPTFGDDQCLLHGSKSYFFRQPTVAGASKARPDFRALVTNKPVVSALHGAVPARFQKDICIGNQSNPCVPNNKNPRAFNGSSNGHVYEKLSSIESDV
Description: as §1, §2

| SMILES | I10 μM/ICONTROL (mean ± SEM, %) Glu N2C [1] [%] | EC50 [1] [µM] | maximal potentiation Glu N2C [1] [%] | I10 μM/ICONTROL (mean ± SEM, %) Glu N2D [2] [%] | EC50 [2] [µM] | maximal potentiation Glu N2D [2] [%] | I10 μM/ICONTROL (mean ± SEM, %) Glu N2B [3] [%] | EC50 [3] [µM] | maximal potentiation Glu N2B [3] [%] |
| --- | --- | --- | --- | --- | --- | --- | --- | --- | --- |
| Cc1sc2ncn(CC(=O)N3CCCC3)c(=O)c2c1-c1cccc(C#N)c1 [3-CN—Ph / Me] | 190 ± 4.2 |  |  | 177 ± 6.2 |  |  | 147 ± 4.1 |  |  |
| Cc1sc2ncn(CC(=O)N3CCCC3)c(=O)c2c1-c1cccc(-n2ccnc2)c1 [3-N-imidazolyl-Ph / Me] | 112 ± 1.3 | 191 | 453 | 99 ± 3.4 | 80 | 207 | 120 ± 5.8 | 102 | 261 |
| Cc1sc2ncn(CC(=O)N3CCCC3)c(=O)c2c1-c1ccc(F)cc1 [4-F—Ph / Me] |  | 81 | 448 |  | 124 | 428 |  | 54 | 213 |
| O=C(Cn1cnc2scc(-c3ccc(I)cc3)c2c1=O)N1CCCC1 [4-I—Ph / H] | 110 ± 2.1 | 89 | 369 | 101 ± 1.8 | 45 | 206 | 121 ± 5.7 | 75 | 262 |
| CSc1ccc(-c2csc3ncn(CC(=O)N4CCCC4)c(=O)c23)cc1 [4-MeS—Ph / H] | 99 ± 2.5 |  |  | 96 ± 2.6 |  |  | 102 ± 4.6 |  |  |
| Cc1ccc(-c2csc3ncn(CC(=O)N4CCCC4)c(=O)c23)cc1 [4-Me—Ph / H] |  | 207 | 597 |  | 170 | 560 |  | 109 | 226 |
| [N-]=[N+]=Nc1ccc(-c2csc3ncn(CC(=O)N4CCCC4)c(=O)c23)cc1 [4-N3—Ph / H] | 166 ± 7.2 | 102 | 918 | 147 ± 6.3 | 134 | 730 | 134 ± 6.7 | 88 | 353 |
| Cc1sc2ncn(CC(=O)N3CCCC3)c(=O)c2c1-c1ccc(N=[N+]=[N-])cc1 [4-N3—Ph / Me] | 146 ± 6.4 | 54 | 485 | 128 ± 2.6 | 50 | 426 | 135 ± 5.5 | 54 | 304 |
| Cc1sc2ncn(CC(=O)N3CCCC3)c(=O)c2c1-c1ccc(N)cc1 [4-NH2—Ph / Me] | 116 ± 4.5 |  |  | 103 ± 2.2 |  |  | 104 ± 1.7 |  |  |
| Cc1sc2ncn(CC(=O)N3CCCC3)c(=O)c2c1-c1ccc(O)cc1 [4-OH—Ph / Me] | 98 ± 2.3 |  |  | 99 ± 2.5 |  |  | 82 ± 1.0 |  |  |
| O=C(Cn1cnc2sc3c(c2c1=O)CCCC3)c1ccc([N+](=O)[O-])cc1 [Compound 4-NO2] | 93 ± 2.0 |  |  | 97 ± 1.1 |  |  | 94 ± 1.3 |  |  |
| C#CCn1cnc2sc(C)c(-c3cccc(Cl)c3)c2c1=O [—C≡CH] | 98 ± 7.9 |  |  | 98 ± 4.3 |  |  | 116 ± 4.0 |  |  |

The remaining lines, values ahead:

| I10 μM/ICONTROL (mean ± SEM, %) Glu N2C [1] [%] | EC50 [1] [µM] | maximal potentiation Glu N2C [1] [%] | I10 μM/ICONTROL (mean ± SEM, %) Glu N2D [2] [%] | EC50 [2] [µM] | maximal potentiation Glu N2D [2] [%] | I10 μM/ICONTROL (mean ± SEM, %) Glu N2B [3] [%] | EC50 [3] [µM] | maximal potentiation Glu N2B [3] [%] | SMILES |
| --- | --- | --- | --- | --- | --- | --- | --- | --- | --- |
| 241 ± 19.7 | 17 | 568 | 239 ± 11.5 | 21 | 687 | 172 ± 8.7 | 11 | 266 | Cc1sc2ncn(CC(=O)N3CCCC3)c(=O)c2c1-c1cccc(Br)c1 [3-Br—Ph / Me] |
| 368 ± 29.0 | 13 | 748 | 480 ± 74.3 | 25 | 1735 | 211 ± 11.3 | 6 | 282 | Cc1sc2ncn(CC(=O)N3CCCC3)c(=O)c2c1-c1cccc(C(F)(F)F)c1 [3-CF3—Ph / Me] |
| 211 ± 14.7 | 36 | 877 | 190 ± 6.3 | 37 | 830 | 170 ± 4.7 | 16 | 301 | Cc1sc2ncn(CC(=O)N3CCCC3)c(=O)c2c1-c1cccc(Cl)c1 [3-Cl—Ph / Me] |
| 401 ± 36.4 | 7.6 | 622 | 364 ± 31.6 | 15 | 1068 | 246 ± 14.9 | 3.7 | 249 | Cc1sc2ncn(CC(=O)N3CCCC3)c(=O)c2c1-c1cccc(I)c1 [3-I—Ph / Me] |
| 264 ± 17.7 | 10 | 613 | 175 ± 9.4 | 10 | 592 | 176 ± 8.1 | 23.8 | 295 | Cc1sc2ncn(CC(=O)N3CCCC3)c(=O)c2c1-c1cccc(N=[N+]=[N-])c1 [3-N3—Ph / Me] |
| 321 ± 13.6 | 36 | 1483 | 253 ± 13.3 | 60 | 1860 | 185 ± 4.8 | 12 | 304 | Cc1sc2ncn(CC(=O)N3CCCC3)c(=O)c2c1-c1cccc([N+](=O)[O-])c1 [3-NO2—Ph / Me] |
| 135 ± 5.4 | 35 | 392 | 131 ± 3.7 | 25 | 291 | 118 ± 5.2 | 11 | 147 | Cc1sc2ncn(CC(=O)N3CCCC3)c(=O)c2c1-c1ccc(OCc2ccccc2)cc1 [4-BnO—Ph / Me] |
|  | 60 | 449 |  | 79 | 400 |  | 11.3 | 163 | Cc1sc2ncn(CC(=O)N3CCCC3)c(=O)c2c1-c1ccc(Br)cc1 [4-Br—Ph / Me] |
|  | 76 | 770 |  | 72 | 512 |  | 46 | 314 | O=C(Cn1cnc2scc(-c3ccc(Cl)cc3)c2c1=O)N1CCCC1 [4-Cl—Ph / H] |
|  | 15 | 347 |  | 23 | 381 |  | 11 | 223 | Cc1sc2ncn(CC(=O)N3CCCC3)c(=O)c2c1-c1ccc(Cl)cc1 [4-Cl—Ph / Me] |
|  | 66 | 417 |  | 58 | 355 |  | 39 | 223 | CCc1ccc(-c2csc3ncn(CC(=O)N4CCCC4)c(=O)c23)cc1 [4-Et—Ph / H] |
|  | 18 | 186 |  | 18 | 232 |  | 15 | 147 | CCOc1ccc(-c2c(C)sc3ncn(CC(=O)N4CCCC4)c(=O)c23)cc1 [4-OEt—Ph / Me] |
| 100 ± 2.5 |  |  | 98 ± 1.4 |  |  | 121 ± 6.9 | 33 | 174 | CC(C)c1ccc(-c2csc3ncn(CC(=O)N4CCCC4)c(=O)c23)cc1 [4-^iPr—Ph / H] |
| 120 ± 3.7 | 14 | 168 | 148 ± 9.1 | 12 | 262 | 115 ± 5.4 | 15 | 153 | Cc1sc2ncn(CC(=O)N3CCCC3)c(=O)c2c1-c1ccccc1 [Ph / Me] |

— patent US12006328B2, “Thieno[2,3-d]pyrimidin-4-one derivatives as NMDAR modulators and uses related thereto” (Emory University, priority 2014, dated 2024)
